How the values were obtained:
[1] = target: T1, ATP-dependent translocase ABCB1 (Homo sapiens, UniProt P08183)
Description: TP_TRANSPORTER: inhibition of Rhodamine 123 efflux in NIH-3T3-G185 cells

[2] = target: T1, ATP-dependent translocase ABCB1; remark: listed apart in the source
Description: TP_TRANSPORTER: inhibition of Daunorubicin efflux in NIH-3T3-G185 cells

[3] = target: T1, ATP-dependent translocase ABCB1; remark: listed apart in the source
Description: TP_TRANSPORTER: inhibition of LDS-751 efflux in NIH-3T3-G185 cells

[4] = target: T1, ATP-dependent translocase ABCB1; remark: listed apart in the source
Description: TP_TRANSPORTER: inhibition of Calcein-AM efflux in NIH-3T3-G185 cells

[5] = target: T1, ATP-dependent translocase ABCB1; remark: listed apart in the source
Description: TP_TRANSPORTER: inhibition of Tetramethylrosamine efflux in NIH-3T3-G185 cells

[6] = target: T1, ATP-dependent translocase ABCB1; remark: listed apart in the source
[7] = target: T1, ATP-dependent translocase ABCB1; remark: listed apart in the source
Description: TP_TRANSPORTER: inhibition of Fluo-3-AM efflux in NIH-3T3-G185 cells

[8] = target: T1, ATP-dependent translocase ABCB1; assay: TP_TRANSPORTER: inhibition of Daunorubicin, LDS-751 and Rhodamine 123 efflux in NIH-3T3-G185 cells; format: functional, cell-based; details: mouse

T1 sequence (P08183 whole entry): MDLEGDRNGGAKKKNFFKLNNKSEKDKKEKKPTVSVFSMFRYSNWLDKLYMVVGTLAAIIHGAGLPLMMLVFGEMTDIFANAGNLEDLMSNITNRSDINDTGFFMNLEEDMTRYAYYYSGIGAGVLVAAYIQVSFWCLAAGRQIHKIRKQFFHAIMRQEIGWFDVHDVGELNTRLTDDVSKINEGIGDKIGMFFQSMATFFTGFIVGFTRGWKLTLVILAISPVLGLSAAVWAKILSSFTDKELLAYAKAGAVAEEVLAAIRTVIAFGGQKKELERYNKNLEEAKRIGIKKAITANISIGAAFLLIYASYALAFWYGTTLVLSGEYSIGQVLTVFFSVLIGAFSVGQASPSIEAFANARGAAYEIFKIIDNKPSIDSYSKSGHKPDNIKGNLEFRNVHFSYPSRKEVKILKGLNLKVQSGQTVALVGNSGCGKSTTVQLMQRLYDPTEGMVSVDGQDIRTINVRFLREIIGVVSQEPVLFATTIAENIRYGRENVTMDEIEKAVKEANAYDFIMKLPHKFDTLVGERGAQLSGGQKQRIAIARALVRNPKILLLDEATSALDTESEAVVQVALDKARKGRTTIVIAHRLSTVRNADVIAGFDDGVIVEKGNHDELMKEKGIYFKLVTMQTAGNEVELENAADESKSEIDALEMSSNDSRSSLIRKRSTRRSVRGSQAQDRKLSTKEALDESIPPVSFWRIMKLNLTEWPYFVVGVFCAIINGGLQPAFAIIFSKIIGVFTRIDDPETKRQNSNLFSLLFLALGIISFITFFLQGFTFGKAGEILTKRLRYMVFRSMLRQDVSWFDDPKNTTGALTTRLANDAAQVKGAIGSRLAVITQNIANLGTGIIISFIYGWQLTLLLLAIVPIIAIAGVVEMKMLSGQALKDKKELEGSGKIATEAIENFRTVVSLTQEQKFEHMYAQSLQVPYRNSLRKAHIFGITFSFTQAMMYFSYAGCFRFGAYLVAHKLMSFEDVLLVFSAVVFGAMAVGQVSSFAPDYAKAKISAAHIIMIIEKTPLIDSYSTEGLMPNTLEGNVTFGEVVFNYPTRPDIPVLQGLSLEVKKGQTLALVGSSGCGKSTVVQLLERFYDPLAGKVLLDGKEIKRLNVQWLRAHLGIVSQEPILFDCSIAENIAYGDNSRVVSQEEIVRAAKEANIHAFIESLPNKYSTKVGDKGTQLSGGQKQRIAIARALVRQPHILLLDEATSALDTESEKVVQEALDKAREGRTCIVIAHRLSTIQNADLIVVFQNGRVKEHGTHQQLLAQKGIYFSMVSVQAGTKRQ

IC50 [1] [µM] | IC50 [2] [µM] | IC50 [3] [µM] | IC50 [4] [µM] | IC50 [5] [µM] | IC50 [6] [µM] | IC50 [7] [µM] | Activity [8] | SMILES
6.6 | 4.6 | 6 | – | – | – | – | – | COc1ccccc1OCCNCC(O)COc1cccc2[nH]c3ccccc3c12 (stereo unspecified) [CARVEDILOL]
15.1 | 3.8 | 7.2 | 56.1 | 23.8 | 50.2 | 86.7 | – | CC[C@H]1OC(=O)[C@H](C)[C@@H](O[C@H]2C[C@@](C)(OC)[C@@H](O)[C@H](C)O2)[C@H](C)[C@@H](O[C@@H]2O[C@H](C)C[C@H](N(C)C)[C@H]2O)[C@](C)(OC)C[C@@H](C)C(=O)[C@H](C)[C@@H](O)[C@]1(C)O [CLARITHROMYCIN]
1 | 0.6 | 1.1 | – | – | – | – | – | CC(C)/N=c1\cc2n(-c3ccc(Cl)cc3)c3ccccc3nc-2cc1Nc1ccc(Cl)cc1 [CLOFAZIMINE]
– | 80.2 | 188 | – | – | – | – | – | C=C[C@@]1(C)CC(=O)[C@]2(O)[C@@]3(C)[C@@H](O)CCC(C)(C)[C@@H]3[C@H](O)[C@H](OC(C)=O)[C@@]2(C)O1 [COLFORSIN]
– | – | – | – | – | – | – | is not an inhibitor [-] | COc1ccc2c(c1)c(CC(=O)O)c(C)n2C(=O)c1ccc(Cl)cc1 [INDOMETHACIN]
8.6 | 3.6 | 4.9 | – | – | – | – | – | COc1ccc(CCNCCCC(C#N)(c2cc(OC)c(OC)c(OC)c2)C(C)C)cc1OC (stereo unspecified) [N-Norgallopamil]
70.2 | 54 | 53.9 | – | – | – | – | – | CC(=O)O[C@H]1C(=O)[C@@]2(C)[C@H]([C@H](OC(=O)c3ccccc3)[C@]3(O)C[C@H](OC(=O)[C@H](O)[C@@H](NC(=O)c4ccccc4)c4ccccc4)C(C)=C1C3(C)C)[C@]1(OC(C)=O)CO[C@@H]1C[C@@H]2O [PACLITAXEL]
3.9 | 0.5 | 2.1 | 2.6 | 5.3 | 6.1 | 2.1 | – | COC(=O)[C@H]1[C@H]2C[C@@H]3c4[nH]c5cc(OC)ccc5c4CCN3C[C@H]2C[C@@H](OC(=O)c2cc(OC)c(OC)c(OC)c2)[C@@H]1OC [RESERPINE]

SMILES | IC50 [1] [µM] | IC50 [2] [µM] | IC50 [3] [µM] | IC50 [4] [µM] | IC50 [5] [µM] | IC50 [6] [µM] | IC50 [7] [µM] | Activity [8]
CC[C@H]1CN2CCc3cc(OC)c(OC)cc3[C@@H]2C[C@@H]1C[C@H]1NCCc2cc(OC)c(OC)cc21 [EMETINE] | 9.6 | 9.2 | 2.4 | 35.1 | 207 | 116 | 130 | –
OCCN1CCN(CCCN2c3ccccc3Sc3ccc(C(F)(F)F)cc32)CC1 [FLUPHENAZINE] | 10.4 | 6.5 | 5.7 | – | – | – | – | –
c1ccc([P+](c2ccccc2)(c2ccccc2)c2ccccc2)cc1 [TETRAPHENYLPHOSPHONIUM] | – | 490 | 427 | – | – | – | – | –
